Experimental data taken from patent US8129380B2, “Phthalazinone derivatives” (AstraZeneca AB, priority 2008, dated 2012).

Tests used:
[1] = Solubility in 0.1 M phosphate buffer; format: physicochemical; details: pH 7.4, 24 hours, 25° C.
Experimental: The solubility of the test compounds was measured following a method described in Leach, A., et al., J Med Chem (2006), 49(23), 6672-6682:
Solubility values are determined from agitation of compounds in 0.1 M phosphate buffer at pH 7.4 for 24 hours at 25° C. The supernatant is separated from undissolved material by double centrifugation and subsequently analysed and quantified against a standard of known concentration in DMSO using generic HPLC-UV methodology coupled with mass spectral peak identification.

[2] = molecular target: T1, P-glycoprotein (KBA1 cells) (Homo sapiens, UniProt P08183); assay: P-gp substrate activity, Dose Modification Ratio with/without Verapamil, SRB assay; format: in vitro ADME; details: IC50 without Verapamil / IC50 with 20 μM Verapamil, 5 days
T1 construct: Cells from the Hela cell line known as KBA1, which expressed high P-glycoprotein; endogenous in cells; host or cells: KBA1 (HeLa-derived) cells; matched non-P-gp line KB31
T1 sequence (P08183 whole entry): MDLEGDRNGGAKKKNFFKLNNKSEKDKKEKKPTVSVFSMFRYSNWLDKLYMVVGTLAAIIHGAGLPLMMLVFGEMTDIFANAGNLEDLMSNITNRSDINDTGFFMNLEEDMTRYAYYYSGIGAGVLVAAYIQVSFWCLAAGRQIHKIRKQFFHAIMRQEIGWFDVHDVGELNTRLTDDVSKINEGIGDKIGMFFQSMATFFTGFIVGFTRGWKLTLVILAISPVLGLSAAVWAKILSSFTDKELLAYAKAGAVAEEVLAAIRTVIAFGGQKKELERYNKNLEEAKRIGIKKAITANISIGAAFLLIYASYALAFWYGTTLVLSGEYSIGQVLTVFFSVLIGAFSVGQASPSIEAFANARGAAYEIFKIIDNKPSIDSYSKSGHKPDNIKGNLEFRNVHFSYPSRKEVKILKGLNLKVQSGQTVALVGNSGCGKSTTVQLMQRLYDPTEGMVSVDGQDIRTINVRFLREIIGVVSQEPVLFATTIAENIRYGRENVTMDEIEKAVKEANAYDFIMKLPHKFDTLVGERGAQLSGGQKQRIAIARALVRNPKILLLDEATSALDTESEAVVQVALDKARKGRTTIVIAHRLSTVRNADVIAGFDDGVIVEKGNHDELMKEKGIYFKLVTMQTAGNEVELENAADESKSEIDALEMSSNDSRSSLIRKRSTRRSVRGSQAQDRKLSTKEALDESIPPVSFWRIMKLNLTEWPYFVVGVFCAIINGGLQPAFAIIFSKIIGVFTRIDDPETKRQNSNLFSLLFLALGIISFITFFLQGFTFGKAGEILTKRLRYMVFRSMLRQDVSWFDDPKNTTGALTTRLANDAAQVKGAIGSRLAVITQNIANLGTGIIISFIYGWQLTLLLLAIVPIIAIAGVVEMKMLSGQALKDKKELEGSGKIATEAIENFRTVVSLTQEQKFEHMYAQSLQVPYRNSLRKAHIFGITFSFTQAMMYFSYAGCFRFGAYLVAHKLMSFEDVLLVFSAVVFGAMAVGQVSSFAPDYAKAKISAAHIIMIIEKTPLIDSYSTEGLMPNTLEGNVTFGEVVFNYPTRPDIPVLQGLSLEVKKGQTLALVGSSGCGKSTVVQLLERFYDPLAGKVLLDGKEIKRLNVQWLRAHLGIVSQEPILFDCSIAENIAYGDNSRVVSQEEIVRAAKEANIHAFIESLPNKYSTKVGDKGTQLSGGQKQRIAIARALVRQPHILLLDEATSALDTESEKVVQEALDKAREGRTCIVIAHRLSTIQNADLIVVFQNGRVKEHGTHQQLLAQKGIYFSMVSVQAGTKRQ
Experimental: Cells from the Hela cell line known as KBA1, which expressed high P-glycoprotein (ABC1a and ABC1b transporter glycoproteins also known as MDR1a and MDR1b) and the matched non-P-glycoprotein expressing line known as KB31, were seeded onto 96 well tissue culture plates with 80 μl per well of 1.00×10^4 cells/ml=800 cells/well [DMEM, 10% FBS, PSG] and left to adhere for 4 hours. After the incubation period 10 μl per well of 200 μM Verapamil (giving a final conc. of 20 μM) a known inhibitor of P-gp or vehicle media were added to various wells of the cell plates. The 96 well plates were left in the incubator for 1 hour prior to 10 μl of test compound (or the known substrate Etoposide as a reference control) or 10 μl PBS/1% DMSO vehicle (control wells) being added into either Verapamil containing or media control wells. […]
The cell plates were then incubated for 5 days prior to cell growth being assessed using the Sulforhodamine B (SRB) assay as described previously. The P-gp substrate activity for each compound was calculated using the cell growth activity of the tests compounds on the KBA1 cells in the presence or absence (control wells) of Verapamil. The Dose Modification Ratio (DMR) is calculated from the KBA1 where for each test compound a ratio of the IC50 of the compound in the absence of Verapamil is divided by the IC50 of cell growth in the presence of Verapamil. […]

[3] = system: HeLa cells; assay: Potentiation Factor (PF50): MMS growth inhibition, SRB assay; format: cell-based; details: MMS 0-10 μg/ml, ratio IC50 control / IC50 + inhibitor; for PF50 (30 nM): PARP inhibitor at 30 nM; for PF50 (200 nM): PARP inhibitor at 200 nM
Experimental: The Potentiation Factor (PF50) for compounds is calculated as a ratio of the IC50 of control cell growth divided by the IC50 of cell growth+PARP inhibitor. Growth inhibition curves for both control and compound treated cells are in the presence of the alkylating agent methyl methanesulfonate (MMS). The test compounds were used at a fixed concentration of 0.2 micromolar. The concentrations of MMS were over a range from 0 to 10 μg/ml.
2,000 HeLa cells were seeded into each well of a flat-bottomed 96-well microtiter plate in a volume of 100 μl and incubated for 6 hours at 37° C. Cells were either replaced with media alone or with media containing PARP inhibitor at a final concentration of 30 nM or 200 nM. […] Cells treated with PARP inhibitor alone were used to assess the growth inhibition by the PARP inhibitor.
Cells were left for a further 16 hours before replacing the media and allowing the cells to grow for a further 72 hours at 37° C. The media was then removed and the cells fixed with 100 μl of ice cold 10% (w/v) trichloroacetic acid. The plates were incubated at 4° C. for 20 minutes and then washed four times with water. Each well of cells was then stained with 100 μl of 0.4% (w/v) SRB in 1% acetic acid for 20 minutes before washing four times with 1% acetic acid. Plates were then dried for 2 hours at room temperature. The dye from the stained cells was solubilized by the addition of 100 μl of 10 mM Tris Base into each well.

solubility [1]	Dose Modification Ratio (DMR) [2]	SMILES	PF50 (30 nM) [3]	PF50 (200 nM) [3]
211 µmol	1.0	CCOC1CCN(C(=O)c2cc(Cc3n[nH]c(=O)c4ccccc34)ccc2F)CC1 [Compound 2f, 4-(3-(4-ethoxypiperidine-1-carbonyl)-4-fluorobenzyl)phthalazin-1(2H)-one]	14.1	25
1070 µmol	1.3	COC1CCN(C(=O)c2cc(Cc3n[nH]c(=O)c4ccccc34)ccc2F)CC1 [Compound 2b, 4-(4-fluoro-3-(4-methoxypiperidine-1-carbonyl)benzyl)phthalazin-1(2H)-one]	3.0	15
		N#Cc1ccc(OC2CCN(C(=O)c3cc(Cc4n[nH]c(=O)c5ccccc45)ccc3F)CC2)nc1 [Compound 26c]	32.4	
		COc1ccnc(OC2CCN(C(=O)c3cc(Cc4n[nH]c(=O)c5ccccc45)ccc3F)CC2)c1 [Compound 26k]	26.8	
		O=C(c1cc(Cc2n[nH]c(=O)c3ccccc23)ccn1)N1CCC(Oc2ccccn2)CC1 [Compound 6f]	1.8	5.0
		Cc1ccc(OC2CCN(C(=O)c3cc(Cc4n[nH]c(=O)c5ccccc45)ccc3F)CC2)nn1 [Compound 26b]	1.5	
		O=C(c1cc(Cc2n[nH]c(=O)c3ccccc23)ccc1F)N1CCC(OC(F)F)CC1 [Compound 19, 4-(3-(4-(difluoromethoxy)piperidine-1-carbonyl)-4-fluorobenzyl)phthalazin-1(2H)-one]	2.5	
		CCOC1CCN(C(=O)c2cccc(Cc3n[nH]c(=O)c4cccc(Cl)c34)c2)CC1 [Compound 119b, 5-chloro-4-(3-(4-ethoxypiperidine-1-carbonyl)benzyl)phthalazin-1(2H)-one]	1.2	
